Counter-ions that a name gives are not always drawn.
Assays:
Format in all cases: cell-based
[1] = system: differentiated mouse myoblasts; assay: Glucose uptake study: intracellular glucose colorimetric assay in insulin-treated differentiated mouse myoblasts
Excerpt: (§1) In vitro efficacy study: evaluation of the modulation of the carbohydrate metabolism by two compositions comprising a chromium salt (Composition 1 and Composition 2) in a culture of differentiated mouse myoblasts.
(§2) The following endpoints were considered:—glucose uptake, by means of intracellular glucose assay; • expression of GLUT-4, insulin-sensitive glucose transporter; and • ATP content, the primary source of energy for cellular biochemical reactions.
(§3) The experimental model used in this study is differentiated mouse myoblasts (ATCC Number: CRL-1772, lot 70013341), cultured in Dulbecco's Modified Eagle's Medium (DMEM) supplemented with 10% foetal bovine serum at 37° C., 5% CO2. The formation of myotubes is induced by adding horse serum.
(§4) The experimental protocol provided for: • Untreated control cells (CTR-); • Insulin-treated control cells (100 nM); • Insulin-treated cells and the Compounds in question (Composition 1 and Composition 2); • Insulin-treated cells and the reference Compound (metformin).
(§5) Three concentrations of each composition under study (Composition 1 and 2) were tested: 500 μM, 100 µM and 50 μM (Cr). The preparation of the samples involved the use of DMSO as solvent.
(§6) The reference Compound (metformin hydrochloride) was tested at 2000 μm. • The treatment of the cells with Composition 1 and 2 and reference Composition extended for 24 hours.
(§7) The cultures were then treated with insulin (100 nM) for 4 hours. A source of glucose was added to the media in the glucose uptake evaluation study. The treatments were conducted in quadruplicate.
(§8) At the end of the treatments the cells were lysed to obtain a cell homogenate on which it was assayed: • glucose, by means of colorimetric assay; • ATP, by means of colorimetric assay; • GLUT-4, by means of ELISA technique.
(§9) Commercially available colorimetric and ELISA kits were used.
(§10) The colorimetric kits use a specific probe, a mixture of reaction enzymes and a curve with known amounts of each standard.
(§11) The data obtained in the experimental groups treated with the samples subject of the study were subjected to statistical analysis and compared with each other and with insulin according to the t-test. Variations are considered significant for p<0.05.
(§12) Glucose assay: the results (Table 2 and FIG. 1) are expressed as mean content±st.dev. (expressed in nanomoles) and as a mean % variation with respect to treatment with insulin. Statistically significant data with respect to insulin are reported with *, while ^∘ indicates differences between tested compounds.

GLUT-4 = GLUT-4 study: ELISA of GLUT-4 in cell homogenate of insulin-treated differentiated mouse myoblasts
Excerpt: as §1, §2, §3, §4, §5, §6, §7, §8, §9
ELISA kits exploit the competitive binding of an antigen (in this case GLUT-4) with its primary antibody. The immune complex (antigen-antibody) is in turn recognised by a secondary antibody conjugated to a peroxidase. The addition of the peroxidase substrate produces a colorimetric reaction with intensity proportional to the amount of immune complexes present and thus to the amount of bound target molecule. Quantitative determination exploits a calibration curve constructed with known and increasing concentrations of standard marker.
as §11
as §12, with “GLUT-4” for “Glucose”, “3” for “2”, “2)” for “1)”, “μg/L)” for “nanomoles)”

[2] = system: differentiated mouse myoblasts; assay: ATP study: colorimetric assay of ATP content in insulin-treated differentiated mouse myoblasts
Excerpt: as §1, §2, §3, §4, §5, §6, §7, §8, §9, §10, §11
as §12, with “ATP” for “Glucose”, “4” for “2”, “3)” for “1)”

[3] = 2000 um for 24 hours + insulin 100 nM for 4 hours
[4] = 50 μM (Cr) for 24 hours + insulin 100 nM for 4 hours
[5] = 100 μM (Cr) for 24 hours + insulin 100 nM for 4 hours
[6] = 500 μM (Cr) for 24 hours + insulin 100 nM for 4 hours
[7] = at 500 µM and 100 µM, significance vs. insulin p<0.05
[8] = insulin 100 nM for 4 hours, insulin-treated control cells

CN(C)C(=N)N=C(N)N [Metformin, metformin hydrochloride]
% var. vs. insulin (glucose assay) ([1]; 2000 um + insulin): 24.6%
mean value (glucose assay, mean content) [1, 3]: 11.73 nmol
% var. vs. insulin (GLUT-4 assay) (GLUT-4; 2000 um + insulin): 28.0%
mean value (GLUT-4 assay, mean content) (GLUT-4; [3]): 6.71 µg/L
% var. vs. insulin (ATP assay) ([2]; 2000 um + insulin): 17.6%
mean value (ATP assay, mean content) [2, 3]: 4.61 nmol

chromium (III) picolinate [CR picolinate]
mean value (glucose assay, mean content) [1, 4]: 10.24 nmol
% var. vs. insulin (glucose assay) ([1]; 50 μM + insulin): 8.7%
mean value (glucose assay, mean content) [1, 5]: 11.08 nmol
% var. vs. insulin (glucose assay) ([1]; 100 μM + insulin): 17.6%
mean value (glucose assay, mean content) [1, 6]: 11.24 nmol
% var. vs. insulin (glucose assay) ([1]; 500 μM + insulin): 19.3%
glucose uptake, behaviour over the three concentrations, in words ([1]; 500, 100 and 50 μM): showed a dose-dependent behaviour
insulin-dependent glucose uptake, result in words [1, 7]: effective in significantly increasing insulin-dependent glucose uptake
mean value (GLUT-4 assay, mean content) (GLUT-4; [4]): 5.60 µg/L
% var. vs. insulin (GLUT-4 assay) (GLUT-4; 50 μM + insulin): 6.8%
mean value (GLUT-4 assay, mean content) (GLUT-4; [5]): 6.35 µg/L
% var. vs. insulin (GLUT-4 assay) (GLUT-4; 100 μM + insulin): 21.1%
mean value (GLUT-4 assay, mean content) (GLUT-4; [6]): 6.50 µg/L
% var. vs. insulin (GLUT-4 assay) (GLUT-4; 500 μM + insulin): 24.0%
GLUT-4 levels, behaviour over the three concentrations, in words (GLUT-4; 500, 100 and 50 μM): showed a dose-dependent behaviour
levels of GLUT-4 carrier, result in words (GLUT-4; [7]): effective in significantly increasing the levels of GLUT-4 carrier
mean value (ATP assay, mean content) [2, 4]: 4.09 nmol
% var. vs. insulin (ATP assay) ([2]; 50 μM + insulin): 4.3%
mean value (ATP assay, mean content) [2, 5]: 4.78 nmol
% var. vs. insulin (ATP assay) ([2]; 100 μM + insulin): 22.1%
mean value (ATP assay, mean content) [2, 6]: 5.35 nmol
% var. vs. insulin (ATP assay) ([2]; 500 μM + insulin): 36.5%
intracellular ATP, behaviour over the three concentrations, in words ([2]; 500, 100 and 50 μM): showed a dose-dependent behaviour
intracellular ATP, statistical comparison between the compositions, in words ([2]; at 50 μM): does not show performance differences
levels of intracellular ATP, result in words [2, 7]: effective in significantly increasing the levels of intracellular ATP

Insulin: insulin (100 nM) used to treat control cells and all treated cultures
mean value (glucose assay, mean content) [1, 8]: 9.42 nmol
mean value (GLUT-4 assay, mean content) (GLUT-4; [8]): 5.24 µg/L
mean value (ATP assay, mean content) [2, 8]: 3.92 nmol
